The target of one assay is T1, recombinant HTLV-1 IN (Human T-cell leukemia virus 1, UniProt P03362).
T1 construct: made in house
Nature of the assay: In vitro integration strand transfer assay with HTLV-1 IN. Format: biochemical. The conditions noted are these: for HTLV-1 IN strand transfer activity (No drug = 100): INSTI at 634 nM. The gist of the method:
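Recombinant HTLV-1 IN (4 μg) with annealed 3′-processed LTR donor DNA (0.53 μM) preincubated 15 min RT with compound (screen at 634 nM) in PIPES pH 6.0, NaCl, MgCl2, ZnCl2, DTT; supercoiled plasmid target added, 1 h 37 °C. Concerted integration product quantified by agarose-gel densitometry; IC50 from dose–response fits, triplicate.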

The next assay relates to HIV-1. The conditions noted are these: cited from earlier work.
The mark [1] stands for this setting: Replicate 1, read-out: HTLV-1 IN strand transfer IC50.
The mark [2] stands for this setting: Replicate 2, read-out: HTLV-1 IN strand transfer IC50.
The mark [3] stands for this setting: Replicate 3, read-out: HTLV-1 IN strand transfer IC50.
The mark [4] stands for this setting: integrase strand-transfer drug titration, n = 3, read-out: HTLV-1 IC50 ± stdev.
Setting [5] is: previously reported, read-out: EC50, infection by wild-type HIV-1.

Like-named read-outs stand apart in the source and are kept apart here.

T1 sequence (P03362 1168-1462): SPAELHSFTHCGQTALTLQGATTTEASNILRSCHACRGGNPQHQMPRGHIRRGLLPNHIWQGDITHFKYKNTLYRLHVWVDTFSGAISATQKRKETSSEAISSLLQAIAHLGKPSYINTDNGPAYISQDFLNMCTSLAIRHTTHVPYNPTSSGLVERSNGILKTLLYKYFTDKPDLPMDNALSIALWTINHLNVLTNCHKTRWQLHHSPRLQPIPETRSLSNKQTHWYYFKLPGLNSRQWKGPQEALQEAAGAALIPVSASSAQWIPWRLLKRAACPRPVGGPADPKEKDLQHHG

On to `Nc1c(C(=O)NCc2ccc(F)cc2F)c(=O)n(O)c2ncc(CCS(=O)(=O)c3ccccc3)cc12` [XZ446, 4-amino-N-(2,4-difluorobenzyl)-1-hydroxy-2-oxo-6-(2-(phenylsulfonyl)ethyl)-1,2-dihydro-1,8-naphthyridine-3-carboxamide], for which the “HTLV-1 IN strand transfer activity (No drug = 100)” value is given as 11.4924% on recombinant HTLV-1 IN (Replicate 1), 20.4545% at recombinant HTLV-1 IN (Replicate 2) and 15.1675% on recombinant HTLV-1 IN (Replicate 3). For the same compound, the IC50 on recombinant HTLV-1 IN (setting [1]) was 143 nM; at recombinant HTLV-1 IN (setting [2]), 85 nM; on recombinant HTLV-1 IN (setting [3]), 126 nM; at recombinant HTLV-1 IN (setting [4]), 115 ± 9.5 nM. Further, in the assay with HIV-1 (previously reported, read-out: EC50, inhibitory potency for HIV-1), the EC50 is 2 ± 0.1 nM.
On to `CC(C)n1c(C(=O)N(C)C)c2c(c(O)c1=O)C(=O)N(Cc1ccc(F)c(Cl)c1)CC2` [XZ236, 6-(3-chloro-4-fluorobenzyl)-4-hydroxy-2-isopropyl-N,N-dimethyl-3,5-dioxo-2,3,5,6,7,8-hexahydro-2,6-naphthyridine-1-carboxamide, reference compound], for which the results for the “HTLV-1 IN strand transfer activity (No drug = 100)” value on recombinant HTLV-1 IN (Replicate 1), at recombinant HTLV-1 IN (Replicate 2) and at recombinant HTLV-1 IN (Replicate 3) were 9.7581%, 22.4849% and 26.0036%, respectively. For the same compound, the IC50 at recombinant HTLV-1 IN (setting [1]) stood at 130 nM; on recombinant HTLV-1 IN (setting [2]) it was 504 nM; at recombinant HTLV-1 IN (setting [3]), 301 nM; on recombinant HTLV-1 IN (setting [4]), 322 ± 121 nM. The “inhibition of HTLV-1 IN in the screen compared with RAL” value on recombinant HTLV-1 IN (each compound at 634 nM) is recorded as “outperformed RAL”. Moreover, the EC50 in the assay on HIV-1 (HIV-1 infection model, supplementary ref 7, read-out: HIV-1 EC50 ± stdev) is 17 ± 4 nM.
With `Nc1c(C(=O)NCc2ccc(F)cc2F)c(=O)n(O)c2ncc(CCCO)cc12` [XZ423, 4-amino-N-(2,4-difluorobenzyl)-1-hydroxy-6-(3-hydroxypropyl)-2-oxo-1,2-dihydro-1,8-naphthyridine-3-carboxamide], the “HTLV-1 IN strand transfer activity (No drug = 100)” value on recombinant HTLV-1 IN (Replicate 1) stood at 5.722%; at recombinant HTLV-1 IN (Replicate 2), 15.1459%; on recombinant HTLV-1 IN (Replicate 3) it was 14.6599%. Further, the IC50 on recombinant HTLV-1 IN (setting [1]) turned out to be 144 nM; on recombinant HTLV-1 IN (setting [2]) it was 185 nM; on recombinant HTLV-1 IN (setting [3]), 155 nM; on recombinant HTLV-1 IN (setting [4]) it was 155 ± 33.5 nM. Also, the EC50 in the assay with HIV-1 (HIV-1 infection model, supplementary ref 1, read-out: HIV-1 EC50 ± stdev) was 3.1 ± 2 nM.
With `CN(C)C(=O)CCc1cnc2c(c1)c(N)c(C(=O)NCc1ccc(F)cc1F)c(=O)n2O` [XZ450, 4-amino-N-(2,4-difluorobenzyl)-6-(3-(dimethylamino)-3-oxopropyl)-1-hydroxy-2-oxo-1,2-dihydro-1,8-naphthyridine-3-carboxamide], the entries for the “HTLV-1 IN strand transfer activity (No drug = 100)” value at recombinant HTLV-1 IN (Replicate 1), at recombinant HTLV-1 IN (Replicate 2) and at recombinant HTLV-1 IN (Replicate 3) were 10.2814%, 19.561% and 9.5729%, respectively. Also, the IC50 on recombinant HTLV-1 IN (setting [1]) was determined as 115 nM; at recombinant HTLV-1 IN (setting [2]) it was 180 nM; on recombinant HTLV-1 IN (setting [3]), 76 nM; on recombinant HTLV-1 IN (setting [4]), 120 ± 36.1 nM. Moreover, the EC50 in the assay on HIV-1 (setting [5]) is 5 ± 1.3 nM.
Regarding `Nc1c(C(=O)NCc2ccc(F)cc2F)c(=O)n(O)c2ncc(CCC(=O)NCCO)cc12` [XZ448, 4-amino-N-(2,4-difluorobenzyl)-1-hydroxy-6-(3-((2-hydroxyethyl)amino)-3-oxopropyl)-2-oxo-1,2-dihydro-1,8-naphthyridine-3-carboxamide], the “HTLV-1 IN strand transfer activity (No drug = 100)” value at recombinant HTLV-1 IN (Replicate 1) was determined as 5.498%; at recombinant HTLV-1 IN (Replicate 2), 23.674%; on recombinant HTLV-1 IN (Replicate 3), 16.1231%. For the same compound, the IC50 turned out to be 99 nM on recombinant HTLV-1 IN (setting [1]), 227 nM at recombinant HTLV-1 IN (setting [2]), 108 nM at recombinant HTLV-1 IN (setting [3]) and 132 ± 29.7 nM on recombinant HTLV-1 IN (setting [4]). In the assay on HIV-1 (setting [5]), the EC50 is 263 ± 52 nM.

The values above are taken from publication PMC8370991, “Structural basis for the inhibition of HTLV-1 integration inferred from cryo-EM deltaretroviral intasome structures” (Nature Communications, 2021).
